The text below walks through data of PubChem BioAssay AID1745844 (Carcinogenic Potency Database (CPDB), 2022).

Molecules are shown by their SMILES. Active and inactive are the calls of the source. The rule behind the calls is not given here.

The subject of this data set is rodent lifetime carcinogenesis bioassay, tumor incidence TD50. Briefly: chronic cancer bioassays in animals – CPDB, compiled studies (AID 1745844).

In general, TD50 refers to the dose at which the toxic effect under study appears in half of the subjects. For `CCO`, the carcinogen call reads like this: (hamster, strain Syrian Golden, males, in drinking water, site: trachea, lesion: one or several types, types not named, dosed 29 weeks, study length 78 weeks) “negative (inactive)”; (mouse, strain BALB/c, males, in drinking water, site: forestomach, lesion: squamous-cell papilloma, dosed 69 weeks, study length 86 weeks) “negative (inactive)”; (mouse, strain Swiss, males, in drinking water, site: lung, lesion: adenoma, dosed 69 weeks, study length 86 weeks) “negative (inactive)”; (rat, strain Charles River CD (Sprague-Dawley), females, in drinking water, site: any site (literature study), lesion: one or several types, types not named, dosed 104 weeks, study length 104 weeks) “negative (inactive)”; (rat, strain Charles River CD (Sprague-Dawley), females, in drinking water, site: liver, lesion: neoplastic nodule, dosed 104 weeks, study length 104 weeks) “negative (inactive)”; (rat, strain Charles River CD (Sprague-Dawley), males, in drinking water, site: any site (literature study), lesion: one or several types, types not named, dosed 104 weeks, study length 104 weeks) “negative (inactive)”. Moreover, the carcinogen call was “negative (inactive)” (rat, strain Charles River CD (Sprague-Dawley), males, in drinking water, site: liver, lesion: hepatocellular carcinoma, dosed 104 weeks, study length 104 weeks); “negative (inactive)” (rat, strain F344/DuCrj, males, in drinking water, site: forestomach, lesion: one or several types, types not named, dosed 51 weeks, study length 52 weeks); “negative (inactive)” (rat, strain F344/DuCrj, males, in drinking water, site: stomach, glandular, lesion: one or several types, types not named, dosed 51 weeks, study length 52 weeks); “negative (inactive)” (rat, strain Sprague-Dawley, both sexes, in drinking water, site: any site (literature study), lesion: malignant tumor, dosed 111 weeks, study length 111 weeks). Moreover, the TD50 reads like this: (mouse, strain A, males, in drinking water, site: liver, lesion: hepatocellular adenoma, dosed 72 weeks, study length 72 weeks) 127000 mg/kg/day; (mouse, strain Swiss, females, in drinking water, site: any site (literature study), lesion: several types, types named in the paper, dosed 69 weeks, study length 86 weeks) 21400 mg/kg/day (inactive); (mouse, strain Swiss, females, in drinking water, site: forestomach, lesion: squamous-cell papilloma, dosed 69 weeks, study length 86 weeks) 10900 mg/kg/day (inactive); (rat, strain ACI, males, in drinking water, site: forestomach, lesion: papilloma, dosed 52 weeks, study length 52 weeks) 4980 mg/kg/day; (rat, strain Charles River CD (Sprague-Dawley), males, in drinking water, site: liver, lesion: neoplastic nodule, dosed 104 weeks, study length 104 weeks) 84800 mg/kg/day (inactive); (rat, strain Slc-Wistar, males, in drinking water, site: liver, lesion: hepatocellular adenoma, dosed 120 weeks, study length 120 weeks) 56100 mg/kg/day (inactive). Further, the TD50 was 93900 mg/kg/day (inactive) (rat, strain Slc-Wistar, males, in drinking water, site: liver, lesion: hepatocellular carcinoma, dosed 120 weeks, study length 120 weeks); 33800 mg/kg/day (inactive) (rat, strain Slc-Wistar, males, in drinking water, site: liver, lesion: several types, types named in the paper, dosed 120 weeks, study length 120 weeks); 61000 mg/kg/day (rat, strain Sprague-Dawley, females, in drinking water, site: any site (literature study), lesion: malignant tumor, dosed 104 weeks, study length 120 weeks); 5870 mg/kg/day (rat, strain Sprague-Dawley, females, in drinking water, site: any site (literature study), lesion: several types, types named in the paper, dosed 104 weeks, study length 120 weeks); 201000 mg/kg/day (rat, strain Sprague-Dawley, females, in drinking water, site: liver, lesion: hepatocellular adenoma, dosed 104 weeks, study length 120 weeks); 6070 mg/kg/day (rat, strain Sprague-Dawley, females, in drinking water, site: mammary gland, lesion: benign tumor, dosed 104 weeks, study length 120 weeks). The TD50 is, setting by setting: (rat, strain Sprague-Dawley, females, in drinking water, site: mammary gland, lesion: fibroadenoma, dosed 104 weeks, study length 120 weeks) 8790 mg/kg/day; (rat, strain Sprague-Dawley, females, in drinking water, site: mammary gland, lesion: several types, types named in the paper, dosed 104 weeks, study length 120 weeks) 4710 mg/kg/day; (rat, strain Sprague-Dawley, females, in drinking water, site: pancreas, lesion: adenoma, dosed 104 weeks, study length 120 weeks) 21900 mg/kg/day; (rat, strain Sprague-Dawley, females, in drinking water, site: pituitary gland, lesion: neoplasm, NOS, dosed 104 weeks, study length 120 weeks) 5480 mg/kg/day; (rat, strain Sprague-Dawley, males, in drinking water, site: adrenal gland, lesion: one or several types, types not named, dosed 130 weeks, study length 130 weeks) 13700 mg/kg/day; (rat, strain Sprague-Dawley, males, in drinking water, site: any site (literature study), lesion: malignant tumor, dosed 104 weeks, study length 120 weeks) 7180 mg/kg/day. The TD50 is, setting by setting: (rat, strain Sprague-Dawley, males, in drinking water, site: any site (literature study), lesion: several types, types named in the paper, dosed 104 weeks, study length 120 weeks) 1210 mg/kg/day; (rat, strain Sprague-Dawley, males, in drinking water, site: any site (literature study), lesion: several types, types named in the paper, dosed 130 weeks, study length 130 weeks) 2130 mg/kg/day; (rat, strain Sprague-Dawley, males, in drinking water, site: liver, lesion: hepatocellular carcinoma, dosed 104 weeks, study length 120 weeks) 164000 mg/kg/day; (rat, strain Sprague-Dawley, males, in drinking water, site: liver, lesion: hepatocellular carcinoma, dosed 130 weeks, study length 130 weeks) 28400 mg/kg/day; (rat, strain Sprague-Dawley, males, in drinking water, site: liver, lesion: hyperplastic nodule, dosed 130 weeks, study length 130 weeks) 8260 mg/kg/day; (rat, strain Sprague-Dawley, males, in drinking water, site: pancreas, lesion: carcinoma, dosed 104 weeks, study length 120 weeks) 17500 mg/kg/day. The TD50 (rat, strain Sprague-Dawley, males, in drinking water, site: pancreas, lesion: one or several types, types not named, dosed 130 weeks, study length 130 weeks) was 13700 mg/kg/day; the TD50 (rat, strain Sprague-Dawley, males, in drinking water, site: pancreas, lesion: several types, types named in the paper, dosed 104 weeks, study length 120 weeks) came out at 33200 mg/kg/day; the TD50 (rat, strain Sprague-Dawley, males, in drinking water, site: pituitary gland, lesion: one or several types, types not named, dosed 130 weeks, study length 130 weeks) is 9110 mg/kg/day.

On to `O=C(NCC1CCCCN1)c1cc(OCC(F)(F)F)ccc1OCC(F)(F)F` (configuration not stated), for which the carcinogen call was “negative (inactive)” (mouse, strain Charles River CD1, females, in feed, site: liver, lesion: adenoma, dosed 78 weeks, study length 78 weeks); “negative (inactive)” (mouse, strain Charles River CD1, males, in feed, site: liver, lesion: adenoma, dosed 78 weeks, study length 78 weeks); “negative (inactive)” (mouse, strain Charles River CD1, males, in feed, site: liver, lesion: hepatocellular carcinoma, dosed 78 weeks, study length 78 weeks); “negative (inactive)” (mouse, strain Charles River CD1, males, in feed, site: lung, lesion: adenoma, dosed 78 weeks, study length 78 weeks); “negative (inactive)” (rat, strain Charles River Crl:COBS(WI)BR, females, in feed, site: liver, lesion: adenoma, dosed 104 weeks, study length 104 weeks). Further, the TD50 reads like this: (mouse, strain Charles River CD1, females, in feed, site: lung, lesion: adenoma, dosed 78 weeks, study length 78 weeks) 938 mg/kg/day (inactive); (rat, strain Charles River Crl:COBS(WI)BR, males, in feed, site: liver, lesion: adenoma, dosed 104 weeks, study length 104 weeks) 3580 mg/kg/day (inactive); (rat, strain Charles River Crl:COBS(WI)BR, males, in feed, site: testis, lesion: interstitial-cell adenoma, dosed 104 weeks, study length 104 weeks) 79.1 mg/kg/day (inactive).

As for `O=C(C1CCCCC1)N1CC(=O)N2CCc3ccccc3C2C1` (configuration not stated), the TD50 (hamster, strain Syrian Golden, females, by gavage, site: any site (literature study), lesion: several types, types named in the paper, dosed 80 weeks, study length 80 weeks) was 250 mg/kg/day (inactive). Further, the carcinogen call is “negative (inactive)” (hamster, strain Syrian Golden, males, by gavage, site: any site (literature study), lesion: several types, types named in the paper, dosed 80 weeks, study length 80 weeks); “negative (inactive)” (rat, strain Sprague-Dawley, females, by gavage, site: any site (literature study), lesion: several types, types named in the paper, dosed 104 weeks, study length 130 weeks); “negative (inactive)” (rat, strain Sprague-Dawley, males, by gavage, site: any site (literature study), lesion: several types, types named in the paper, dosed 104 weeks, study length 130 weeks).

In the case of `CC(C)(Oc1ccc(C2CCCc3ccccc32)cc1)C(=O)O` (configuration not stated), the carcinogen call (hamster, strain Syrian, MB strain, males, in feed, site: liver, lesion: several types, types named in the paper, dosed 60 weeks, study length 60 weeks) was “negative (inactive)”. Further, the TD50 is 22.4 mg/kg/day (rat, strain Fischer 344, males, in feed, site: liver, lesion: hepatocellular carcinoma, dosed 108 weeks, study length 108 weeks); 207 mg/kg/day (rat, strain Fischer 344, males, in feed, site: pancreas, lesion: acinar-cell adenoma, dosed 108 weeks, study length 108 weeks); 428 mg/kg/day (rat, strain Fischer 344, males, in feed, site: pancreas, lesion: acinar-cell carcinoma, dosed 108 weeks, study length 108 weeks); 132 mg/kg/day (rat, strain Fischer 344, males, in feed, site: pancreas, lesion: several types, types named in the paper, dosed 108 weeks, study length 108 weeks); 3.51 mg/kg/day (rat, strain Sprague-Dawley, males, in feed, site: liver, lesion: several types, types named in the paper, dosed 60 weeks, study length 60 weeks); 55.5 mg/kg/day (rat, strain Wistar, females, in feed, site: liver, lesion: hepatocellular adenoma, dosed 70 weeks, study length 70 weeks). Also, the TD50 was 163 mg/kg/day (rat, strain Wistar, females, in feed, site: liver, lesion: hepatocellular carcinoma, dosed 55 weeks, study length 55 weeks); 92.3 mg/kg/day (rat, strain Wistar, females, in feed, site: liver, lesion: hepatocellular carcinoma, dosed 70 weeks, study length 70 weeks); 163 mg/kg/day (rat, strain Wistar, females, in feed, site: liver, lesion: several types, types named in the paper, dosed 55 weeks, study length 55 weeks); 36.6 mg/kg/day (rat, strain Wistar, females, in feed, site: liver, lesion: several types, types named in the paper, dosed 70 weeks, study length 70 weeks); 12.3 mg/kg/day (rat, strain Wistar, males, in feed, site: any site (literature study), lesion: one or several types, types not named, dosed 59 weeks, study length 59 weeks); 38.8 mg/kg/day (rat, strain Wistar, males, in feed, site: liver, lesion: hepatocellular adenoma, dosed 57 weeks, study length 57 weeks). In addition, the TD50 is 48 mg/kg/day (rat, strain Wistar, males, in feed, site: liver, lesion: hepatocellular adenoma, dosed 59 weeks, study length 59 weeks); 59.1 mg/kg/day (rat, strain Wistar, males, in feed, site: liver, lesion: hepatocellular carcinoma, dosed 57 weeks, study length 57 weeks); 58.1 mg/kg/day (rat, strain Wistar, males, in feed, site: liver, lesion: hepatocellular carcinoma, dosed 59 weeks, study length 59 weeks); 19.8 mg/kg/day (rat, strain Wistar, males, in feed, site: liver, lesion: several types, types named in the paper, dosed 57 weeks, study length 57 weeks); 22.1 mg/kg/day (rat, strain Wistar, males, in feed, site: liver, lesion: several types, types named in the paper, dosed 59 weeks, study length 59 weeks).
